The results in this text go back to US12325708B2, “Adenosine 2 receptor antagonists” (Nektar Therapeutics, priority 2019, dated 2025).

A short description of data set [1]: Brain-to-plasma ratio (B/P) after administration. The data set is classed as in vivo, Sprague-Dawley rats. The note with it: Sprague-Dawley, rat, brain-to-plasma ratio at 1 h. An excerpt: A similar unexpected result was obtained when the phenyl ring present on Compound 1 was replaced with a halogen substituted pyridine. The halogen was previously introduced on the phenyl ring with the aim of blocking a possible metabolic soft-spot, with similar results observed as for Compound 1 in terms of exposure, clearance and bioavailability (Compound 10 and Compound 15). The substituted pyridine ring was designed to modulate the lipophilicity and polar surface area, as well as to address metabolic soft-spot concerns. Clearance and bioavailability parameters remain similar between substituted phenyl and pyridine (Compound 4 and Compound 14) analogs, which span a range in cLogP of 2.7-3.2. It was therefore surprising the significant improvement in exposure and clearance observed for the more lipophilic Compound 19. […] A compound is commonly deemed to be a brain penetrant if the brain-to-blood/plasma concentration ratio (B/P) is greater than 0.04 using methods as known in the art (Schaffer, Annual Reports in Medicinal Chemistry, 45:55-70, 2010).
Plasma pharmacokinetic parameters were determined following oral (PO) administration of further compounds essentially as described in Example 28 with the results shown in Table 6.

Data set [2] can be described thus: Plasma pharmacokinetic parameters following intravenous (IV) or oral (PO) administration in rats. The data set is classed as in vivo, Sprague-Dawley rats. The note with it: rat. Here is the method:
Adult male Sprague-Dawley rats (230-250 g) (Charles River Labs, Hollister, CA) were utilized for the study. There were 2 rats/group. All animals were food fasted overnight with water provided ad libitum at all times. Compounds 1, 4, 14 and 19 were synthesized as described in Examples 2, 17, 7, and 12, respectively, and formulated in injectable water.
(§1) The morning of each dosing, individual doses were calculated based on current body weights on the day of dosing. The jugular vein cannula (JVC) and the carotid artery cannula (CAC) were externalized, flushed with HEP/saline (10 IU/mL HEP/mL saline), plugged, and labeled to identify the jugular vein and the carotid artery. The IV group animals were dosed at 0.5 mg/kg of Compound 1, 4, 14 or 19, respectively, intravenously via the jugular vein, while the PO dose was administered 2.5 mg/kg of Compound 1, 4, 14 or 19, respectively, orally via gavage. For the IV group, immediately following the dose of test article, the dead volume of the catheter was flushed with 0.9% saline to ensure the animals received the full dose.
Approximately 0.2 mL of blood was collected per time point from JVC. Blood samples were collected at 2 (IV group only), 5, 15, 30, 60, 120, 240, 360, 420 (Compound 19 only), 480, 720 (Compound 19 only), and 1440 minutes via the CAC and transferred immediately into K2EDTA coated tubes pre-loaded 2 μl with quenching cocktail and placed on wet ice. The samples were centrifuged within 30 min after collection at 10,000 RPM for 5 minutes and the resulting plasma was separated. Plasma was transferred into microfuge tubes and placed on dry ice immediately. The plasma samples were stored at approximately −70° C. until bioanalysis.
Plasma samples were extracted by protein precipitation with acetonitrile containing 0.1% formic acid and doxepin for Compound 1 (available from Sigma-Aldrich) or SCH58261 for Compounds 4, 14 and 19 (available from Sigma-Aldrich) as an internal standard. Following vortex and centrifugation, supernatant was diluted 3-fold with water containing 0.1% formic acid and analyzed by LC-MS/MS.
Pharmacokinetic parameters (PK) were determined by non-compartmental analysis (NCA) using Phoenix 64 WinNonlin (version 8) and Dotmatics (version 5.0). Nominal doses and time points were used for the analysis.
The following PK parameters were estimated using plasma concentration-time profile of each animal with the results presented in Table 3: • AUCinf Area under the concentration-time from zero to time infinity • AUClast Area under the concentration-time from zero to time of last concentration value • F Bioavailability • CL Total body clearance • Cmax Maximum (peak) concentration • MRTlast Mean residence time to last observable concentration • Tmax Time to reach maximum or peak concentration following administration • Vss Volume of distribution at steady state
Adult male Sprague-Dawley rats (230-250 g) (Charles River Labs, Hollister, CA) were utilized for the study. There were 2 rats/group. All animals were food fasted overnight with water provided ad libitum at all times. Compound 1 was synthesized as described in Example 2 and formulated in injectable water.
as §1, with “1” for “1, 4, 14 or 19, respectively,”
Approximately 0.2 mL of blood was collected per time point from JVC. […]

The target of data set [3] is T1, A1 receptor (Homo sapiens, UniProt P30542).
T1 construct: purchased
T1 sequence (P30542 1-326): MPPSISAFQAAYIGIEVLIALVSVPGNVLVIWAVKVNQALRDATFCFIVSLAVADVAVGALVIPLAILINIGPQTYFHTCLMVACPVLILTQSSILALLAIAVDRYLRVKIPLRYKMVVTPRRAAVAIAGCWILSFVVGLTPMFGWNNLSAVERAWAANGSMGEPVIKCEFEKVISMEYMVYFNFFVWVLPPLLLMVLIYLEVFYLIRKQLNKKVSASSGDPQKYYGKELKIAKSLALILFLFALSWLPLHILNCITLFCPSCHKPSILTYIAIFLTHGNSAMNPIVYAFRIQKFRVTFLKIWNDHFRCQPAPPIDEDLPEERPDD
Briefly: Radioligand receptor binding assay, A1 receptor. The note with it: cell membranes overexpressing A1 receptor, read-out: Potency Ki A1. The protocol:
(§2) Using conventional receptor binding assay techniques, Compounds 1-24 were assayed to determine binding activity at the A2A, A1, and A3 receptors with the results shown in Table 7.
(§3) Receptor binding affinity of Compounds 1-24 was measured using radioligand binding assays using commercially obtained cell membranes prepared from cell lines overexpressing the A2A, A1, or A3 receptors. Briefly, cell membrane preparations from cells expressing the specific receptor were mixed with the appropriate [^3H]-labeled tracer for the specific receptor and the test compound or a known inhibitor of receptor-ligand binding. Following 60 min incubation at room temperature to allow receptor-ligand complex formation, the complexes were collected by filtration, washed with 50 mM Tris HCl (pH 7.5) to remove radioligand that was not receptor-bound, and the remaining radioactivity determined by liquid scintillation counting. Specific radioligand binding was calculated for each test compound concentration and IC50 values were determined by non-linear, regression analysis. Inhibition constants (Ki) were calculated using the equation of Cheng and Prusoff using the observed IC50 of the tested compound, the concentration of radioligand employed in the assay and the experimentally determined values for the Kd of the ligand.

Data set [4] concerns the target T2, A2A receptor (Homo sapiens, UniProt P29274).
T2 construct: purchased
Briefly: Radioligand receptor binding assay, A2A receptor. The note with it: cell membranes overexpressing A2A receptor, read-out: Potency Ki A2A. The protocol: as §2, §3

The mark [5] stands for this setting: male, Sprague-Dawley, plasma, 2.5 mg/kg, Table 6, oral (PO) administration essentially as described in Example 28.
[6] abbreviates: male, Sprague-Dawley, plasma, intravenous, 0.5 mg/kg, Table 6, essentially as described in Example 28.
The mark [7] stands for this setting: male, Sprague-Dawley, plasma, po, 2.5 mg/kg, Table 6, oral (PO) administration essentially as described in Example 28.
Setting [8] is: male, Sprague-Dawley, plasma, iv, 0.5 mg/kg, IV 0.5 mg/kg, injectable water.
The mark [9] stands for this setting: male, Sprague-Dawley, plasma, oral, 2.5 mg/kg, Table 2 summary of Example 27, values marked 1 are the average of experiments.
Where [10] appears, read: male, Sprague-Dawley, plasma, po, 2.5 mg/kg, PO 2.5 mg/kg via gavage, injectable water.

pKi: −log10 of the molar value. Bounds are passed on as bounds.

T2 sequence (P29274 whole entry): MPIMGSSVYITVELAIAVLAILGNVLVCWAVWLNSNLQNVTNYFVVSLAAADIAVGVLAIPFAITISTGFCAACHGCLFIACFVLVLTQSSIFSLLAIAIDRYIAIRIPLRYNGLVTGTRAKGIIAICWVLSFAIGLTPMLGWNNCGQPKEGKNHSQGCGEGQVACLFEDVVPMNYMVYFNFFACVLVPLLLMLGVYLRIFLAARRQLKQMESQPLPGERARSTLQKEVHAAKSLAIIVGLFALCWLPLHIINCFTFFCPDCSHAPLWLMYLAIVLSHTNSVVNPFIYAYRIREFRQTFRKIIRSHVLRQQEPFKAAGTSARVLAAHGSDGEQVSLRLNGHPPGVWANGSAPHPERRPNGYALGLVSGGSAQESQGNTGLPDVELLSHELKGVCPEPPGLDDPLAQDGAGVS

By Kp is commonly meant the ratio of the level in a tissue or fluid to that in plasma or blood. As a reminder, the AUC is concentration integrated over time. The low end stands for less exposure, the high end for more exposure. As usually defined, the bioavailability is dose-corrected exposure relative to a reference, in per cent. The pKi is the Ki on a negative log10 scale, so that one unit is a factor of ten. Turning to `[2H]C([2H])([2H])OC([2H])([2H])C([2H])([2H])Oc1ccc(N2CCN(CCN(C)c3cc4nc(-c5ncco5)nn4c(N)n3)CC2)cc1` [Compound 12, N^7-methyl-N^7-(2-{4-[4-({2-[(^2H3)methyloxy](^2H4)ethyl}oxy)phenyl]piperazin-1-yl}ethyl)-2-(1,3-oxazol-2-yl)[1,2,4]triazolo[1,5-c]pyrimidine-5,7-diamine], the Kp at 1 h in data set [1] (oral, 2.5 mg/kg, Table 6) was 0.03. In data set [2] (setting [5]), this compound yielded an AUC of 1000 ng·h/mL. Besides, the clearance in data set [2] (setting [6]) was 23 mL/min/kg. In data set [2] (setting [7]), this compound gave a bioavailability of 56%. For the same compound, the pKi in data set [3] was less than 4.00; in data set [4], 8.40.

In the case of `[2H]C([2H])([2H])OC([2H])([2H])C([2H])([2H])Oc1cnc(N2CCN(CCN(C)c3cc4nc(-c5ncco5)nn4c(N)n3)CC2)c(F)c1` [Compound 13, N^7-(2-{4-[3-fluoro-5-({2-[(^2H3)methyloxy](^2H4)ethyl}oxy)pyridin-2-yl]piperazin-1-yl}ethyl)-N^7-methyl-2-(1,3-oxazol-2-yl)[1,2,4]triazolo[1,5-c]pyrimidine-5,7-diamine], in data set [1] (oral, 2.5 mg/kg, Table 6), the Kp at 1 h came to 0.06. The compound also displayed an AUC in data set [2] (setting [5]) of 709 ng·h/mL. This compound also had a clearance in data set [2] (setting [6]) of 33 mL/min/kg. In data set [2] (setting [7]), this compound showed a bioavailability of 57%. Moreover, the pKi in data set [3] is 4.49; in data set [4] it was 8.40.

For orientation: AUC(0-inf) means total exposure, with the tail of the curve extrapolated. A lower AUC(0-inf) goes with low exposure. In general, AUC(0-t) refers to the area under the concentration-time curve up to a stated or last time point. Lower therefore signals low exposure. One may read the MRT last as the average time that molecules of a dose stay in the body. The Cmax is the maximum level reached in the sampled fluid or tissue. Usually Tmax stands for the time from dosing to the highest level. Regarding `COCCOc1cnc(N2CCN(CCN(C)c3cc4nc(-c5ncco5)nn4c(N)n3)CC2)c(Cl)c1` [Compound 14, N^7-(2-{4-[3-chloro-5-(2-methoxyethoxy)pyridin-2-yl]piperazin-1-yl}ethyl)-N^7-methyl-2-(1,3-oxazol-2-yl)[1,2,4]triazolo[1,5-c]pyrimidine-5,7-diamine], the concentration ratio (Kp) at 1 h in data set [1] (Table 2) worked out at 0.025. In data set [2] (male, Sprague-Dawley, plasma, intravenous, 0.5 mg/kg, Table 2 summary of Example 27, values marked 1 are the average of experiments), this compound returned a clearance of 17 mL/min/kg. In data set [2] (setting [8]), this compound had an area under the curve AUC(0-inf) of 526 ng·h/mL, an AUC(0-t) of 523 ng·h/mL, an MRT last of 0.977 h and a clearance of 16.6 mL/min/kg. The Vd in data set [2] (male, Sprague-Dawley, plasma, iv, 0.5 mg/kg, IV 0.5 mg/kg, injectable water, read-out: Vss obs) was 1.02 L/kg. Also, in data set [2] (setting [9]), the AUC amounted to 1480 ng·h/mL and the bioavailability is 56%. In data set [2] (setting [10]), the total exposure AUC(0-inf) worked out at 1480 ng·h/mL, the area under the curve AUC(0-t) was determined as 1370 ng·h/mL and the MRT last came to 2.43 h. For the same compound, in data set [2] (male, Sprague-Dawley, plasma, po, 2.5 mg/kg, PO 2.5 mg/kg via gavage, injectable water, read-out: Cmax), the Cmax was found to be 373 ng/mL. In addition, the Tmax in data set [2] (male, Sprague-Dawley, plasma, po, 2.5 mg/kg, PO 2.5 mg/kg via gavage, injectable water, read-out: Tmax) amounted to 1 h. For the same compound, the “Total clearance as % liver blood flow” value in data set [2] (IV) was roughly 28 % liver blood flow. For the same compound, the F in data set [2] (PO 2.5 mg/kg vs IV 0.5 mg/kg) was found to be 56.1%. For the same compound, in data set [3], the pKi is 4.82. In addition, the pKi in data set [4] was 8.40.

With `COCCOc1ccc(N2CCN(CCN(C)c3cc4nc(-c5ncco5)nn4c(N)n3)CC2)c(Cl)c1` [Compound 15, N^7-(2-{4-[2-chloro-4-(2-methoxyethoxy)phenyl]piperazin-1-yl}ethyl)-N^7-methyl-2-(1,3-oxazol-2-yl)[1,2,4]triazolo[1,5-c]pyrimidine-5,7-diamine], the Kp at 1 h in data set [1] (oral, 2.5 mg/kg, Table 6) came out at 0.05. The compound further displayed an AUC in data set [2] (setting [5]) of 1160 ng·h/mL. In addition, the clearance in data set [2] (setting [6]) stood at 20 mL/min/kg. For the same compound, the bioavailability in data set [2] (setting [7]) worked out at 57%. Moreover, the half-life in data set [2] (male, Sprague-Dawley, plasma, Table 6, printed in the CL column, read-out: t½ (converted)) is 1.2 h. The figures for the pKi in data set [3] and in data set [4] were 5.40 and 8.64, respectively.

Consider `COCCOc1ccc(N2CCN(CCN(C)c3cc4nc(-c5ncco5)nn4c(N)n3)CC2)c(OC)c1` [Compound 17, N^7-(2-{4-[2-methoxy-4-(2-methoxyethoxy)phenyl]piperazin-1-yl}ethyl)-N^7-methyl-2-(1,3-oxazol-2-yl)[1,2,4]triazolo[1,5-c]pyrimidine-5,7-diamine], for which the Kp at 1 h in data set [1] (oral, 2.5 mg/kg, Table 6) was 0.03. In data set [2] (setting [5]), the area under the curve (AUC) was found to be 406 ng·h/mL. In data set [2] (setting [6]), this compound registered a clearance of 44 mL/min/kg. For the same compound, the bioavailability in data set [2] (setting [7]) was determined as 43%. Further, the pKi in data set [3] was 4.93; in data set [4], 7.70.

Take `[2H]C([2H])([2H])OC([2H])([2H])C([2H])([2H])Oc1ccc(N2CCN(CCN(c3cc4nc(-c5ncco5)nn4c(N)n3)C([2H])([2H])[2H])CC2)cc1` [Compound 18, N^7-(^2H3)methyl-N^7-(2-{4-[4-({2-[(^2H3)methyloxy](^2H4)ethyl}oxy)phenyl]piperazin-1-yl}ethyl)-2-(1,3-oxazol-2-yl)[1,2,4]triazolo[1,5-c]pyrimidine-5,7-diamine]: the Kp at 1 h in data set [1] (oral, 2.5 mg/kg, Table 6) was found to be 0.09. In data set [2] (setting [5]), the exposure (AUC) was 900 ng·h/mL. Moreover, the clearance in data set [2] (setting [6]) was determined as 33 mL/min/kg. The bioavailability in data set [2] (setting [7]) worked out at 71%. Besides, the pKi in data set [3] is less than 4.00; in data set [4], 8.10.
